Data reported in ChEMBL document CHEMBL5113480, “Discovery of novel biphenyl-substituted pyridone derivatives as potent non-nucleoside reverse transcriptase inhibitors with promising oral bioavailability” (Eur J Med Chem, 2022).

Legend:
[1] = system: Human immunodeficiency virus 1; test: Antiviral activity against HIV-1 IIIB infected in human MT4 cells assessed as reduction in viral replication by MTT assay; format: functional, organism-based; conditions: Human immunodeficiency virus 1, IIIB
[2] = system: Human immunodeficiency virus 1; test: Antiviral activity against HIV-1 ROD infected in human MT4 cells assessed as reduction in viral replication by MTT assay; format: functional, organism-based
[3] = Cytotoxicity against human MT4 cells assessed as reduction on cell growth by MTT assay; format: toxicity, cell-based
[4] = Selectivity index, ratio of CC50 for cytotoxicity against human MT4 cells to EC50 of Anti-HIV activity against HIV-1 IIIB infected in human MT4 cells; format: toxicity, cell-based; conditions: read-out: Ratio CC50/EC50
[5] = system: Human immunodeficiency virus 1; test: Antiviral activity against HIV-1 L100I mutant infected in human MT4 cells assessed as reduction in viral replication by MTT assay; format: functional, organism-based; conditions: Human immunodeficiency virus 1, L100I mutant
[6] = system: Human immunodeficiency virus 1; test: Antiviral activity against HIV-1 K103N mutant infected in human MT4 cells assessed as reduction in viral replication by MTT assay; format: functional, organism-based; conditions: Human immunodeficiency virus 1, K103N mutant
[7] = system: Human immunodeficiency virus 1; test: Antiviral activity against HIV-1 Y181C mutant infected in human MT4 cells assessed as reduction in viral replication by MTT assay; format: functional, organism-based; conditions: Human immunodeficiency virus 1, Y181C mutant
[8] = system: Human immunodeficiency virus 1; test: Antiviral activity against HIV-1 Y188L mutant infected in human MT4 cells assessed as reduction in viral replication by MTT assay; format: functional, organism-based; conditions: Human immunodeficiency virus 1, Y188L mutant
[9] = system: Human immunodeficiency virus 1; test: Antiviral activity against HIV-1 E138K mutant infected in human MT4 cells assessed as reduction in viral replication by MTT assay; format: functional, organism-based; conditions: Human immunodeficiency virus 1, E138K mutant
[10] = system: Human immunodeficiency virus 1; test: Antiviral activity against HIV-1 F227L-V106A mutant infected in human MT4 cells assessed as reduction in viral replication by MTT assay; format: functional, organism-based; conditions: Human immunodeficiency virus 1, F227L-V106A mutant
[11] = system: Human immunodeficiency virus 1; test: Antiviral activity against HIV-1 K103N-Y181C mutant infected in human MT4 cells assessed as reduction in viral replication by MTT assay; format: functional, organism-based; conditions: Human immunodeficiency virus 1, K103N-Y181C mutant
[12] = target: Human immunodeficiency virus type 1 reverse transcriptase (Human immunodeficiency virus 1, UniProt Q72547); test: Inhibition of wild type HIV-1 Reverse transcriptase

Row | Structure (SMILES) | EC50 [1] [µM] | EC50 [2] [µM] | CC50 [3] [µM] | selectivity ratio [4] | EC50 [5] [µM] | EC50 [6] [µM] | EC50 [7] [µM] | EC50 [8] [µM] | EC50 [9] [µM] | EC50 [10] [µM] | EC50 [11] [µM] | IC50 [12] [µM]
1 | Cn1c(Cn2ccc(C(F)(F)F)c(Oc3ccc(-c4cccc(F)c4)c(F)c3)c2=O)n[nH]c1=O | 1.42 | > 35 | 51.5 | 36.4 | 1.52 | 4.39 | 28.6 | > 35 | 2.16 | > 35 | > 35 | 2.33
2 | Cc1ccc(-c2ccc(Oc3c(C(F)(F)F)ccn(Cc4n[nH]c(=O)n4C)c3=O)cc2F)cc1 | 8.05 | > 35 | 28.2 | 3.52 | – | – | – | – | – | – | – | –
3 | Cn1c(Cn2ccc(C(F)(F)F)c(Oc3ccc(-c4ccc(F)c(C#N)c4)c(F)c3)c2=O)n[nH]c1=O | 0.89 | > 35 | 69.5 | 78.5 | 1.75 | 2.14 | 22.3 | 41.4 | 1.51 | 42.4 | 44.8 | 1.12
4 | Cc1cccc(-c2ccc(Oc3c(C(F)(F)F)ccn(Cc4n[nH]c(=O)n4C)c3=O)c(F)c2)c1 | > 35 | > 35 | 20.3 | ≤ 1 | – | – | – | – | – | – | – | –
5 | Cn1c(Cn2ccc(C(F)(F)F)c(Oc3ccc(-c4cc(F)cc(C#N)c4)cc3Cl)c2=O)n[nH]c1=O | 3.38 | > 35 | 19.3 | 5.71 | 2.41 | 3.29 | 7.14 | > 35 | 3.29 | > 35 | > 35 | 4.37
6 | Cn1c(Cn2ccc(C(F)(F)F)c(Oc3ccc(-c4ccc(C#N)cc4)cc3Cl)c2=O)n[nH]c1=O | 6.02 | > 35 | 21.5 | 3.58 | 4.55 | 6.35 | > 35 | > 35 | 6.18 | > 35 | > 35 | 6.73
7 | Cc1cc(Oc2c(C(F)(F)F)ccn(Cc3n[nH]c(=O)n3C)c2=O)ccc1-c1ccc(F)cc1 | > 35 | > 35 | 23.7 | ≤ 4 | – | – | – | – | – | – | – | –
8 | Cn1c(Cn2ccc(C(F)(F)F)c(Oc3ccc(-c4ccc(F)cc4)cc3)c2=O)n[nH]c1=O | > 35 | > 35 | 36.5 | < 1 | – | – | – | – | – | – | – | –
9 | Cn1c(Cn2ccc(C(F)(F)F)c(Oc3ccc(-c4ccc(F)c(C#N)c4)cc3F)c2=O)n[nH]c1=O | 5.12 | > 35 | 65.5 | 12.8 | 7.27 | 7.27 | 39.6 | 44.8 | 7.72 | > 35 | > 35 | 7
10 | Cn1c(Cn2ccc(C(F)(F)F)c(Oc3ccc(-c4cccc(C#N)c4)c(F)c3)c2=O)n[nH]c1=O | 0.25 | > 35 | 104 | 424 | 0.7 | 1.22 | 4.84 | 46.3 | 0.8 | > 35 | 30.6 | 0.45
11 | Cn1c(Cn2ccc(C(F)(F)F)c(Oc3cc(C#N)cc(-c4cccc(C#N)c4)c3)c2=O)n[nH]c1=O | 0.023 | > 35 | 101 | 4500 | 0.016 | 0.026 | 0.12 | 0.36 | 0.026 | > 35 | 0.26 | 0.21
12 | Cn1c(Cn2ccc(C(F)(F)F)c(Oc3c(F)cc(-c4ccc(F)cc4)cc3F)c2=O)n[nH]c1=O | > 35 | > 35 | 18.2 | ≤ 2 | – | – | – | – | – | – | – | –
13 | Cc1ccc(-c2ccc(Oc3c(C(F)(F)F)ccn(Cc4n[nH]c(=O)n4C)c3=O)c(Cl)c2)cc1 | > 35 | > 35 | 50.9 | < 1 | – | – | – | – | – | – | – | –
14 | Cc1ccc(-c2cc(F)c(Oc3c(C(F)(F)F)ccn(Cc4n[nH]c(=O)n4C)c3=O)c(F)c2)cc1 | > 35 | > 35 | 20.5 | < 1 | – | – | – | – | – | – | – | –
15 | Cn1c(Cn2ccc(C(F)(F)F)c(Oc3c(F)cc(-c4cccc(C#N)c4)cc3F)c2=O)n[nH]c1=O | 1.14 | > 35 | 21.2 | 18.7 | 1.85 | 2.24 | 8.64 | > 35 | 3.06 | > 35 | > 35 | 2.57
16 | Cn1c(Cn2ccc(C(F)(F)F)c(Oc3ccc(-c4cc(F)cc(C#N)c4)cc3F)c2=O)n[nH]c1=O | 3.36 | > 35 | 69.2 | 20.6 | 3.72 | 8.33 | 38.8 | 41.5 | 4.02 | 38.9 | > 35 | 5.98
17 | COc1cc(-c2ccc(C#N)cc2)ccc1Oc1c(C(F)(F)F)ccn(Cc2n[nH]c(=O)n2C)c1=O | 8.02 | > 35 | 142 | 17.6 | 3.77 | 13 | 21.3 | > 35 | 19.5 | > 35 | > 35 | 24.6

Row | Structure (SMILES) | EC50 [1] [µM] | EC50 [2] [µM] | CC50 [3] [µM] | selectivity ratio [4] | EC50 [5] [µM] | EC50 [6] [µM] | EC50 [7] [µM] | EC50 [8] [µM] | EC50 [9] [µM] | EC50 [10] [µM] | EC50 [11] [µM] | IC50 [12] [µM]
18 | Cn1c(Cn2ccc(C(F)(F)F)c(Oc3ccc(-c4cccc(F)c4)cc3F)c2=O)n[nH]c1=O | > 35 | > 35 | 46.8 | ≤ 1 | – | – | – | – | – | – | – | –
19 | Cn1c(Cn2ccc(C(F)(F)F)c(Oc3ccc(-c4ccc(F)c(C#N)c4)cc3)c2=O)n[nH]c1=O | 7.28 | > 35 | 49.1 | 6.75 | – | – | – | – | – | – | – | –
20 | Cc1ccc(-c2ccc(Oc3c(C(F)(F)F)ccn(Cc4n[nH]c(=O)n4C)c3=O)cc2)cc1 | > 35 | > 35 | 25 | < 1 | – | – | – | – | – | – | – | –
21 | Cn1c(Cn2ccc(C(F)(F)F)c(Oc3ccc(-c4cccc(F)c4)cc3Cl)c2=O)n[nH]c1=O | > 35 | > 35 | 20.1 | < 1 | – | – | – | – | – | – | – | –
22 | Cc1cccc(-c2ccc(Oc3c(C(F)(F)F)ccn(Cc4n[nH]c(=O)n4C)c3=O)cc2F)c1 | 4.58 | > 35 | 27.7 | 6.05 | 4.83 | > 35 | > 35 | > 35 | – | 7.66 | > 35 | 17.9
23 | Cc1cccc(-c2cc(F)c(Oc3c(C(F)(F)F)ccn(Cc4n[nH]c(=O)n4C)c3=O)c(F)c2)c1 | > 35 | > 35 | 20.9 | < 1 | – | – | – | – | – | – | – | –
24 | Cn1c(Cn2ccc(C(F)(F)F)c(Oc3ccc(-c4ccc(F)cc4)c(F)c3)c2=O)n[nH]c1=O | 8.92 | > 35 | 25.6 | 2.87 | – | – | – | – | – | – | – | –
25 | Cn1c(Cn2ccc(C(F)(F)F)c(Oc3ccc(-c4ccc(F)cc4)cc3Cl)c2=O)n[nH]c1=O | > 35 | > 35 | 16.7 | < 1 | – | – | – | – | – | – | – | –
26 | Cn1c(Cn2ccc(C(F)(F)F)c(Oc3ccc(-c4ccc(F)cc4)cc3F)c2=O)n[nH]c1=O | > 35 | > 35 | 24.1 | < 1 | – | – | – | – | – | – | – | –
27 | Cc1cccc(-c2ccc(Oc3c(C(F)(F)F)ccn(Cc4n[nH]c(=O)n4C)c3=O)c(C)c2)c1 | > 35 | > 35 | 19.1 | ≤ 2 | – | – | – | – | – | – | – | –
28 | Cc1ccc(-c2ccc(Oc3c(C(F)(F)F)ccn(Cc4n[nH]c(=O)n4C)c3=O)cc2C)cc1 | > 35 | > 35 | 26.6 | < 1 | – | – | – | – | – | – | – | –
29 | Cc1cccc(-c2ccc(Oc3c(C(F)(F)F)ccn(Cc4n[nH]c(=O)n4C)c3=O)c(Cl)c2)c1 | > 35 | > 35 | 24.7 | < 1 | – | – | – | – | – | – | – | –
30 | Cn1c(Cn2ccc(C(F)(F)F)c(Oc3ccc(-c4cccc(F)c4)cc3)c2=O)n[nH]c1=O | > 35 | > 35 | 48.3 | < 1 | – | – | – | – | – | – | – | –
31 | Cc1cccc(-c2ccc(Oc3c(C(F)(F)F)ccn(Cc4n[nH]c(=O)n4C)c3=O)cc2)c1 | > 35 | > 35 | 32.3 | < 1 | – | – | – | – | – | – | – | –
32 | Cc1ccc(-c2ccc(Oc3c(C(F)(F)F)ccn(Cc4n[nH]c(=O)n4C)c3=O)c(F)c2)cc1 | > 35 | > 35 | 38 | < 1 | – | – | – | – | – | – | – | –
33 | Cc1ccc(-c2ccc(Oc3c(C(F)(F)F)ccn(Cc4n[nH]c(=O)n4C)c3=O)c(C)c2)cc1 | > 35 | > 35 | 16.9 | ≤ 1 | – | – | – | – | – | – | – | –
34 | Cc1cc(C#N)cc(C)c1Oc1nc(Nc2ccc(C#N)cc2)nc(N)c1Br [ETRAVIRINE] | 0.029 | > 35 | > 4.6 | > 1600 | – | – | – | 0.018 | – | – | 0.031 | –
